The results in this text go back to patent US8536192B2, “6,7-unsaturated-7-carbamoyl substituted morphinan derivative” (priority 2005, dated 2013).

For test [1], the target named is opioid δ receptor (Rattus norvegicus (Rat), UniProt P33533). Kind of test: Binding assay of opioid δ receptor ([3H]-DADLE, rat cerebrum membrane). As for the experimental part:
(§1) 1) Method of Preparing Membrane Specimen for Binding Assay
(§2) A rat cerebrum (Slc: SD) which had been stored at −80° C. was used. To a cerebrum which had been weighed was added a 20-fold amount of ice-cooled 10 mM Tris-HCl buffer (pH 7.0), and the mixture was homogenized (25000 rpm, 30 seconds) with Histocolon (NITI-ON), and centrifuged at 36600×g for 20 minutes. To the resulting pellet was added 15 ml of the same buffer, and the mixture was treated with Histocolon similarly, and centrifuged. This washing work was performed two times. After centrifugation, to the resulting pellet was added 15 mL of a 50 mM Tris-HCl buffer (pH 7.4), and this was treated with Histocolon, and finally resuspended in a 10-fold amount of the same buffer, which was used as a crude membrane fraction (Life Sci. 48, 111-116, 1991). The prepared membrane specimen was frozen and stored at −80° C., and at an assay, the specimen was rapidly thawed, and diluted to about 900 μg/mL with a 50 mM Tris-HCl buffer (pH 7.4) after the centrifugation and Histocolon treatment, and was used in an experiment. For measuring a protein concentration of the membrane specimen, Micro BCA Protein Assay Kit (PIERCE) was used.
2) Method of δ Receptor Binding Assay and Data Analysis
Into a tube was placed 480 μl of a rat cerebrum membrane fraction to which 100 mM choline chloride, 3 mM MnCl2 and 100 nM DAMGO had been added, and this was incubated at 25° C. for 2 hours. […] After washing, the filter was transferred to a mini vial for liquid scintillation counter, 5 mL of a scintillator (Cleasol I) was added, this was allowed to stand overnight, and the radioactivity was measured for 3 minutes with a liquid scintillation counter Tri-Carb 2200CA (PACKARD).

For test [2], the target named is opioid μ receptor (Rattus norvegicus (Rat), UniProt P33535). Description: Binding assay to opioid μ receptor ([3H]-DAMGO, rat cerebrum membrane). On the procedure: as §1
as §2, with “(pH 7.0), the mixture” for “(pH 7.0), and the mixture”, “(pH 7.4), this was” for “(pH 7.4), and this was”, “Histocolon, and this was finally resuspended” for “Histocolon, and finally resuspended”, “and at a test, the specimen” for “and at an assay, the specimen”
2) Method of μ Receptor Binding Assay and Data Analysis
After washing, the filter was transferred to a mini vial for liquid scintillation counter, 5 mL of a scintillator (Cleasol I) was added, and this was allowed to stand overnight, and the radioactivity was measured for 3 minutes with a liquid scintillation counter Tri-Carb 2200CA (PACKARD).

Test [3] relates to carbon powder transport of inhibitory activity by morphine. Kind of test: Mouse carbon powder transport assay (antagonism of morphine-inhibited small intestine transport). The class given is in vivo. To be noted: sc, 1 h, test compound 3 mg/kg subcutaneously, 15 minutes before morphine 3 mg/kg. On the procedure: 1) Preparation of Test Diet (Carbon Powder)
Using a 10 w/v % arabic gum aqueous solution, a 5 w/v % active carbon solution was prepared, which was used as a test diet.
A ddY line male mouse (5 to 6 weeks old) was used. The mouse was fasted from about 20 or more hours before assay initiation, and water was given ad lib.
The test compound was dissolved in a solvent (DMAA/Solutol/5% meglumine=15/15/70).
Morphine hydrochloride was dissolved in a physiological saline. The test compound, the above solvent and morphine were all administered at a liquid amount of 10 mL/kg.
The test compound 3 mg/kg (test compound administration group) or the solvent (solvent administration group) were subcutaneously administered and, after 15 minutes, amount of 3 mg/kg of morphine was administered to all groups. As a control group, the solvent was subcutaneously administered and, after 15 minutes, a physiological saline was administered.
The test diet 10 mL/kg was orally administered at 15 minutes after administration of morphine. At thirty minutes after administration of the test diet (60 minutes after administration of the test substance), all mice were isolated from esophagus to an ileocecal part near a stomach cardia part. A distance from pyloric part of the stomach to an ileocecal part (full length of small intestine) and a distance until a carbon powder reaching front part (carbon powder movement distance) were measured. The antagonistic activity on the carbon powder transport of inhibitory activity by morphine was calculated as MPE (%) using the following equation. Transport rate (%)=(carbon powder movement distance)/full length of small intestine (cm))×100 M.P.E. (%)={(small intestine transport rate (%) of each individual of test compound administration group−average small intestine transport rate (%) of solvent administration group)/(average small intestine transport rate (%) of control group−average small intestine transport rate (%) of solvent administration group)}×100

The mark [4] stands for this setting: [3H]-DADLE, rat cerebrum membrane fraction, read-out: Ki.
[5] abbreviates: [3H]-DAMGO, rat cerebrum membrane fraction, read-out: Ki.

Where two headings read alike, the source gives them in different places.

On to `CC(C)(NC(=O)C1=C(O)[C@@H]2Oc3c(O)ccc4c3[C@@]23CCN(CC2CC2)[C@H](C4)[C@]3(O)C1)c1nc(-c2ccccc2)no1` [Compound I-284], for which the Ki stood at 0.91 nM in test [1] (setting [4]) and 1.13 nM in test [2]. The percent antagonism of morphine-inhibited transport (M.P.E.) at 3 mg/kg in test [3] is 79.6%.
Regarding `Cc1noc(C(C)(C)NC(=O)C2=C(O)[C@@H]3Oc4c(O)ccc5c4[C@@]34CCN(CC3CC3)[C@H](C5)[C@]4(O)C2)n1` [Compound I-285], the inhibition constant Ki in test [1] worked out at 5.77 nM; in test [2] (setting [5]), 7.29 nM. For the same compound, the percent antagonism of morphine-inhibited transport (M.P.E.) at 3 mg/kg in test [3] was 82.5%.
As for `COCC(C)(C)NC(=O)C1=C(O)[C@@H]2Oc3c(O)ccc4c3[C@@]23CCN(CC2CC2)[C@H](C4)[C@]3(O)C1` [Compound I-286], the inhibition constant (Ki) in test [1] stood at 2.46 nM; in test [2], 14 nM. The percent antagonism of morphine-inhibited transport (M.P.E.) at 3 mg/kg in test [3] was found to be 70.6%.
In the case of `COCC(C)(COC)NC(=O)C1=C(O)[C@@H]2Oc3c(O)ccc4c3[C@@]23CCN(CC2CC2)[C@H](C4)[C@]3(O)C1` [Compound I-288], the Ki was found to be 5.36 nM in test [1] and 14.4 nM in test [2]. The percent antagonism of morphine-inhibited transport (M.P.E.) at 3 mg/kg in test [3] was 101%.
As for `CC(C)NC(=O)C1=C(NS(=O)(=O)c2ccc(F)cc2)[C@@H]2Oc3c(O)ccc4c3[C@@]23CCN(CC2CC2)[C@H](C4)[C@]3(O)C1` [Compound I-289], the results for the inhibition constant (Ki) in test [1] (setting [4]) and in test [2] (setting [5]) were 0.47 nM and 12.9 nM, respectively. In addition, the percent antagonism of morphine-inhibited transport (M.P.E.) at 3 mg/kg in test [3] amounted to 67%.
